Laboratory results reported in patent US10562869B2, “Oxadiazole compounds” (REMYND NV, priority 2014, dated 2020).

test system: M17_3SYN cells; test: Paraquat-induced cytotoxicity (LDH) in α-synuclein over-expressing M17_3SYN neuroblastoma cells; type: cell-based, human; details: Homo sapiens, Neuroblastoma cell, 48 h, toxicity inhibition (LDH) in M17_3SYN cells challenged with 6 mM paraquat, 2 days; read-out: SYN EC50
Excerpt: A α-synuclein expression plasmid was constructed by subcloning the NcoI/XhoI fragment from 212T-SYN(WT) (Griffioen et al., Biochem Biophys Acta (2006) 1762(3):312-318) containing the cDNA of human wild type α-synuclein correspondingly into a standard mammalian expression vector pcDNA3.1 resulting in plasmid pcDNA3.1-SYNwt. Plasmids pcDNA3.1 and pcDNA3.1-SYNwt were transfected into human neuroblastoma cells (BE-M17; ATCC No. CRL-2267™) using lipofectamine reagent and subsequently, independent clonal cell lines with the plasmids stably integrated into the genome were selected by antibiotic resistance selection (Geneticin (G418)), resulting in cell lines M17.pcDNA3 and M17_3SYN. Overexpression of α-synuclein in the M17_3SYN cell line was confirmed by Western blot analysis.
Due to the high levels of α-synuclein, M17_3SYN cells were sensitive to paraquat, a well-known risk factor Parkinson's disease and of synuclein-dependent neuronal degeneration. Cytotoxicity of cells was measured by quantification of lactate dehydrogenase (LDH) levels. In dead cells, LDH leaked out of the cells into the medium due to a loss of plasma-membrane integrity.
[…], primary pre-cultures of M17.pcDNA3 (as possible control) and M17_3SYN cells were prepared, starting from a stock culture, at a density of 20.000-40.000 cells/cm2 in culture medium (Opti-MEM® Reduced Serum Medium with Phenol Red (Invitrogen, Cat. 31985-047) supplemented with 10% FCS, 1 mM sodium pyruvate, 1×NEAA, 500 μg/ml G418 and 0.5×antibiotic/antimycotic (ABAM)). 3 days later these primary pre-cultures were used as a starting point to make secondary pre-cultures at a density of 50.000-100.000 cells/cm^2. At the day of the experiment these secondary precultures were diluted to ˜0.5·10^6 cells/ml in detection medium (Opti-MEM® Reduced-Serum Medium without Phenol Red (Invitrogen, Cat. 11085-021) supplemented with 10% FCS, 1 mM sodium pyruvate, 1×NEAA, 500 μg/ml G418 and 0.5×ABAM) and 60 μL of this suspension was dispensed per well into a 96-well microtiter plate. After 3 hours of incubation at 37° C./5% CO2 an equal volume of detection medium containing a final concentration of 6 mM Paraquat was added and subsequently incubated for 2 days at 37° C./5% CO2. Then LDH activity was determined using the Promega Cytotox 96 Non-Radioactive cytotoxicity assay (Promega, Cat. G1780), according to the manufacturer's instructions. Cytotoxicity was defined as the ratio of LDH relative to the total LDH in the cells and supernatant.
The assay described above using the M17_3SYN cell line allowed screening compounds for their ability to decrease cytotoxicity in PQ-challenged cells. Compounds of the invention were tested for their ability to decrease toxicity at different concentrations, ranging from low non-effective concentrations to high effective concentrations. Afterwards, a dose-dependent inhibition curve was used to calculate the EC50. A compound was considered to be active in this test when it inhibited toxicity by more than 20% relative to untreated M17_3SYN cells at a concentration of 10 μM or lower.

Compound | EC50 [nM]
CCCCc1noc(N2CCN(S(=O)(=O)c3ccc(OC)cc3)CC2)n1 [Cmpd208, 3-Butyl-5-(4-((4-methoxyphenyl)sulfonyl)piperazin-1-yl)-1,2,4-oxadiazole] | 98
O=S(=O)(c1ccc(OC(F)F)cc1)N1CCN(c2nc(CCC(F)(F)F)no2)CC1 [Cmpd173, 5-(4-((4-(Difluoromethoxy)phenyl)sulfonyl)piperazin-1-yl)-3-(3,3,3-trifluoropropyl)-1,2,4-oxadiazole] | 438
COc1ccc(S(=O)(=O)N2CCN(c3nc(Cc4ccccc4)no3)CC2)cc1 [Cmpd037, 1-(3-Benzyl-[1,2,4]oxadiazol-5-yl)-4-(4-methoxy-benzenesulfonyl)-piperazine] | 3
CC[C@@H](c1ccccc1)c1noc(N2CCN(S(=O)(=O)c3ccc(OC)cc3)CC2)n1 [Cmpd050, 1-(4-Methoxy-benzenesulfonyl)-4-[3-((S)-1-phenyl-propyl)-[1,2,4]oxadiazol-5-yl]-piperazine] | 68
Cc1ccc(-c2noc(N3CCN(S(=O)(=O)c4ccc(C(F)(F)F)cc4)CC3)n2)cc1 [Cmpd016, 3-(p-Tolyl)-5-(4-((4-(trifluoromethyl)phenyl)sulfonyl)piperazin-1-yl)-1,2,4-oxadiazole] | 9
COc1ccc(S(=O)(=O)N2CCN(c3nc(C4(c5ccc(Cl)cc5)CC4)no3)CC2)cc1 [Cmpd138, 1-{3-[1-(4-Chloro-phenyl)-cyclopropyl]-[1,2,4]oxadiazol-5-yl}-4-(4-methoxy-benzenesulfonyl)-piperazine] | 39
O=S(=O)(c1ccc2c(c1)CCO2)N1CCN(c2nc(Cc3cccc(F)c3)no2)CC1 [Cmpd095, 1-(2,3-Dihydro-benzofuran-5-sulfonyl)-4-[3-(3-fluoro-benzyl)-[1,2,4]oxadiazol-5-yl]-piperazine] | 89
CCOc1ccc(S(=O)(=O)N2CCN(c3nc(Cc4ccccc4)no3)CC2)cc1 [Cmpd038, 1-(3-Benzyl-[1,2,4]oxadiazol-5-yl)-4-(4-ethoxy-benzenesulfonyl)-piperazine] | 13
CCOc1ccc(S(=O)(=O)N2CCN(c3nc(C4(c5ccc(Cl)cc5)CC4)no3)CC2)cc1 [Cmpd139, 1-{3-[1-(4-Chloro-phenyl)-cyclopropyl]-[1,2,4]oxadiazol-5-yl}-4-(4-ethoxy-benzenesulfonyl)-piperazine] | 356
COc1ccc(S(=O)(=O)N2CCN(c3nc(COc4ccc(Cl)cc4)no3)CC2)cc1 [Cmpd200, 3-((4-Chlorophenoxy)methyl)-5-(4-((4-methoxyphenyl)sulfonyl)piperazin-1-yl)-1,2,4-oxadiazole] | 22
CC(=O)Nc1ccc(S(=O)(=O)N2CCN(c3nc(Cc4cccc(F)c4)no3)CC2)cc1 [Cmpd086, N-(4-{4-[3-(3-Fluoro-benzyl)-[1,2,4]oxadiazol-5-yl]-piperazine-1-sulfonyl}-phenyl)-acetamide] | 522
O=S(=O)(c1cccc(C(F)(F)F)c1)N1CCN(c2nc(Cc3cccc(F)c3)no2)CC1 [Cmpd088, 1-[3-(3-Fluoro-benzyl)-[1,2,4]oxadiazol-5-yl]-4-(3-trifluoromethyl-benzenesulfonyl)-piperazine] | 1840
COc1ccc(S(=O)(=O)N2CCN(c3nc(CC(F)(F)F)no3)CC2)cc1 [Cmpd165, 5-(4-((4-Methoxyphenyl)sulfonyl)piperazin-1-yl)-3-(2,2,2-trifluoroethyl)-1,2,4-oxadiazole] | 32
O=S(=O)(c1ccc(OC(F)F)cc1)N1CCN(c2nc(Cc3ccc(F)c(F)c3)no2)CC1 [Cmpd101, 1-[3-(3,4-Difluoro-benzyl)-[1,2,4]oxadiazol-5-yl]-4-(4-difluoromethoxy-benzenesulfonyl)-piperazine] | 50
COc1ccc(S(=O)(=O)N2CCN(c3nc(C(F)(F)c4ccccc4)no3)CC2)cc1 [Cmpd156, 1-[3-(Difluoro-phenyl-methyl)-[1,2,4]oxadiazol-5-yl]-4-(4-methoxy-benzenesulfonyl)-piperazine] | 5
